Measured values: patent US4232160A, “Isoquinoline propionamides exhibiting analgesic properties” (Miles Laboratories, Inc., priority 1978, dated 1980)
Where a name gives a salt, the structure may show the parent alone.

test system: male CD-1 mice; assay: acetic acid induced writhing test (analgesic activity, subcutaneous); type: in vivo; settings: Mus musculus, sc, 0.5% acetic acid i.p. 15 min post drug, writhes counted in 20 min interval beginning 5 min after acetic acid, read-out: ED50 (dose required to reduce the number of writhes by 50%)
Procedure: The analgesic activity of the isoquinoline propionanilides prepared as described in Examples I-XIII was determined by the acetic acid induced writhing test described by Whittle et al., Brit. J. Pharmacol, 22 296 (1964). In this test at least three groups of five male CD-1 mice each were given subcutaneous doses of the test drug dissolved in either distilled water or distilled water acidified with HCl depending on solubility of the compound. In all cases 0.4 ml. of 0.5% v/v acetic acid in distilled water was administered intraperitoneal 15 minutes post drug. The number of writhes in a 20 minute interval beginning 5 minutes after the acetic acid injection were determined and compared with the number of writhes in control groups which had received only acetic acid. In two cases the ITME writhing test protocol was used which is the same as that outlined above except that the number of writhes are determined for 10 minutes after the administration of acetic acid.
Percent inhibition of writhing was calculated as: [formula]
The ED50 does, ie. the dose required to reduce the number of writhes by 50%, was determined graphically from a plot of % inhibition as a probit versus log dose. Confidence limits of 95% were calculated on the basis of those results falling in the range 16-84% inhibition. See Litchfield, J. T. and Wilcoxon, F., J Pharmacol. Exp. Ther., 96 99-113, (1949).

Structure (SMILES)	ED50 [mg/kg]
CCC(=O)N(CC1c2ccccc2CCN1CC1CC1)c1ccccc1.Cl (stereo not shown) [TR-3207, N-[(1,2,3,4-Tetrahydro-2-cyclopropylmethyl-1-isoquinolyl)methyl]propionanilide hydrochloride]	7.45
CCC(=O)N(CC1c2ccccc2CCN1C)c1ccccc1.Cl (stereo not shown) [TR-3284, N-[(1,2,3,4-Tetrahydro-2-methyl-1-isoquinolyl)methyl]propionanilide hydrochloride]	7.1
CCCCCCN1CCc2ccccc2C1CN(C(=O)CC)c1ccccc1.O.O=C(O)C(=O)O (stereo not shown) [TR-3309, N-[(1,2,3,4-Tetrahydro-2-n-hexyl-1-isoquinolyl)methyl]propionanilide oxalate hydrate]	2.08
CCCCCN1CCc2ccccc2C1CN(C(=O)CC)c1ccccc1.Cl (stereo not shown) [TR-3316, N-[(1,2,3,4-Tetrahydro-2-n-pentyl-1-isoquinolyl)methyl]propionanilide hydrochloride]	1.76
CCC(=O)N(CC1c2ccccc2CCN1C)c1ccc(Cl)cc1.Cl (stereo not shown) [TR-3354, N-[(1,2,3,4-Tetrahydro-2-methyl-1-isoquinolyl)methyl]N-(4-chlorophenyl)propionamide hydrochloride]	0.5
CCC(=O)N(CC1c2ccccc2CCN1C)c1ccc(C)cc1.Cl (stereo not shown) [TR-3355, N-[(1,2,3,4-Tetrahydro-2-methyl-1-isoquinolyl)methyl]-N-(4-methylphenyl)propionamide hydrochloride]	0.53
CCC(=O)N(CC1c2ccccc2CCN1Cc1ccccc1)c1ccccc1.Cl (stereo not shown) [TR-3359, N-[(1,2,3,4-Tetrahydro-2-benzyl-1-isoquinolyl)methyl]propionanilide hydrochloride]	15
CCC(=O)N(Cc1ccccc1)CC1c2ccccc2CCN1Cc1ccccc1 (stereo not shown) [TR-3388, N-[(1,2,3,4-Tetrahydro-2-benzyl-1-isoquinolyl)methyl]-N-benzylpropionamideoxalate]	33
CCC(=O)N(Cc1ccccc1)CC1c2ccccc2CCN1C (stereo not shown) [TR-3389, N-[(1,2,3,4-Tetrahydro-2-methyl-1-isoquinolyl)methyl]-N-benzylpropionamideoxalate]	23
CCC(=O)N(CC1c2cc(OC)c(OC)cc2CCN1C)c1ccccc1 (stereo not shown) [TR-3426, N-[(6,7-Dimethoxy-2-methyl-1,2,3,4-tetrahydro-1-isoquinolyl)methyl]propionanilide]	4.55
CCC(=O)N(CC1c2ccccc2CCN1C)c1ccccn1 (stereo not shown) [TR-3461, N-[(2-Methyl-1,2,3,4-tetrahydro-1-isoquinolyl)methyl]-N-(2-pyridyl)priopionamide hydrochloride]	10.7

same assay, conditions: Mus musculus, sc, 10 min, *According to IMTE writhing test protocol: writhes determined for 10 minutes after acetic acid, read-out: ED50 (dose required to reduce the number of writhes by 50%)

Structure (SMILES)	ED50 [mg/kg]
CCC(=O)N(CC1c2ccccc2CCN1CCc1ccccc1)c1ccccc1.Cl (stereo not shown) [TR-3280, N-[(1,2,3,4-Tetrahydro-2-phenethyl-1-isoquinolyl)methyl]propionanilide hydrochloride]	10
CCC(=O)N(CC1c2ccccc2CCN1CCC(C)C)c1ccccc1.Cl (stereo not shown) [TR-3317, N-[(1,2,3,4-Tetrahydro-2-i-pentyl-1-isoquinolyl)methyl]propionanilide hydrochloride]	16.5
